Columns and labels:
HIV-1 RT M184V = experiment: Mutant HIV-1 RT assay M184V; type: biochemical; details: Poly rC.dG [^3H]dGTP
HIV-1 RT K70E = experiment: Mutant HIV-1 RT assay K70E; type: biochemical; details: Poly rC.dG [^3H]dGTP
HIV-1 RT V106A = details: Poly rC.dG [^3H]dGTP
HIV-1 RT Y115F = experiment: Mutant HIV-1 RT assay Y115F; type: biochemical; details: Poly rC.dG [^3H]dGTP
HIV-1 RT M184V + Y115F = experiment: Mutant HIV-1 RT assay M184V + Y115F; type: biochemical; details: Poly rC.dG [^3H]dGTP
HIV-1 RT M184I = experiment: Mutant HIV-1 RT assay M184I; type: biochemical; details: Poly rC.dG [^3H]dGTP
HIV-1 RT M184V + E138K = experiment: Mutant HIV-1 RT assay M184V + E138K; type: biochemical; details: Poly rC.dG [^3H]dGTP
HSV-1 DNA polymerase = HSV-1 DNA polymerase (Human herpesvirus 1, UniProt P04293); experiment: HSV-1 DNA polymerase enzyme assay; type: biochemical; details: IC50 HSV-1 DNA pol, calf thymus DNA
HIV-1 RT [1] = molecular target: T1, HIV-1 RT (Human immunodeficiency virus type 1 group M subtype B, UniProt P04585); experiment: Site-specific Fe2+ footprinting, post-translocation trapping; type: binding
HIV-1 RT [2] = molecular target: T1, HIV-1 RT; experiment: Gel-based HIV-1 RT-catalyzed DNA synthesis on heteropolymeric DNA; type: biochemical
HIV-1 RT [3] = molecular target: T1, HIV-1 RT; experiment: HIV-1 RT assay with homopolymeric template/primers; type: biochemical; details: IC50 HIV-1 RT
[4] = molecular target: T2, cellular DNA polymerase α (Homo sapiens, UniProt P09884); experiment: Cellular DNA polymerase α assay; type: biochemical
T2 sequence (P09884 1-1462): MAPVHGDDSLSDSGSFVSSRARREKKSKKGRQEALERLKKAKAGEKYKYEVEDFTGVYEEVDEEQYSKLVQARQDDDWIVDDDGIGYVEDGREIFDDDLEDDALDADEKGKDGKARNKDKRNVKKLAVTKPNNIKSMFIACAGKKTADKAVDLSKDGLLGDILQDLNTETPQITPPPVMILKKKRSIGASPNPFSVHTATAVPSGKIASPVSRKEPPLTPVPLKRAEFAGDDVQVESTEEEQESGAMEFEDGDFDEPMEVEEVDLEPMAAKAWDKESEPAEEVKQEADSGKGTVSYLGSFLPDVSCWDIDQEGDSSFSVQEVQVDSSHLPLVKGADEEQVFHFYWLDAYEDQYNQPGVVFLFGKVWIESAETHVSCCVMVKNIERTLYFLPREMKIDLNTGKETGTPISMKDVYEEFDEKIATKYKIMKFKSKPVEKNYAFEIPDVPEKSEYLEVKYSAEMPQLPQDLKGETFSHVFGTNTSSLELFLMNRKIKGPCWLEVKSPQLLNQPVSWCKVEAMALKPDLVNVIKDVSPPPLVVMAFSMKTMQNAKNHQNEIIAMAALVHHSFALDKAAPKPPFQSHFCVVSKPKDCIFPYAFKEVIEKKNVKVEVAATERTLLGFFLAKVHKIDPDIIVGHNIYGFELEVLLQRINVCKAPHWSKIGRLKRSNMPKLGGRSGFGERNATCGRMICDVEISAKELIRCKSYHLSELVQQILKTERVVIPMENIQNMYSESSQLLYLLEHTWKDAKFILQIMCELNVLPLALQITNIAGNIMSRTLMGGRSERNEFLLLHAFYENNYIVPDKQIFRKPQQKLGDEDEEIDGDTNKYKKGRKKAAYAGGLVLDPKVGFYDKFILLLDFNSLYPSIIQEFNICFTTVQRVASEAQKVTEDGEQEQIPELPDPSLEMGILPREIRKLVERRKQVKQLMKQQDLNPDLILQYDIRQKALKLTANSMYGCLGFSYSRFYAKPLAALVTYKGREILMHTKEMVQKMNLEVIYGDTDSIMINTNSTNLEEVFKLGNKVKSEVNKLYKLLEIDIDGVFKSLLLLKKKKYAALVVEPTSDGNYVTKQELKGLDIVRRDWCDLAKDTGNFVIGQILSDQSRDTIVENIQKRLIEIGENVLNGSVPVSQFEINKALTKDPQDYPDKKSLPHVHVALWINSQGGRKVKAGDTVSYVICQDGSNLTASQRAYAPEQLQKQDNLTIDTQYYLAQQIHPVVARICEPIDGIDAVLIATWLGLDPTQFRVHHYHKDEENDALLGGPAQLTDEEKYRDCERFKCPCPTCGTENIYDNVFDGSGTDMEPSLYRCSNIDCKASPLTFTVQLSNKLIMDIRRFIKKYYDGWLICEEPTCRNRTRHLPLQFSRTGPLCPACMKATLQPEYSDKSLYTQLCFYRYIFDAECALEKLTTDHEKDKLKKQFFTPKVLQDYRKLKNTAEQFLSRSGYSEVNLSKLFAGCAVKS

HIV-1 RT K70R = experiment: Mutant HIV-1 RT assay K70R; type: biochemical; details: Poly rC.dG [^3H]dGTP
HCMV DNA polymerase [5] = molecular target: T3, HCMV DNA polymerase (Human cytomegalovirus, UniProt P08546); experiment: Kinetic analysis of HCMV DNA polymerase inhibition; type: biochemical; details: varying dGTP, calf thymus DNA
HIV-1 RT F61A = experiment: Mutant HIV-1 RT assay F61A; type: biochemical; details: Poly rC.dG [^3H]dGTP
HIV-1 RT Q151M = experiment: Mutant HIV-1 RT assay Q151M; type: biochemical; details: Poly rC.dG [^3H]dGTP
HIV-1 RT Y181C = details: Poly rC.dG [^3H]dGTP
HIV-1 RT V75I = experiment: Mutant HIV-1 RT assay V75I; type: biochemical; details: Poly rC.dG [^3H]dGTP
HIV-1 RT K70Q = experiment: Mutant HIV-1 RT assay K70Q; type: biochemical; details: Poly rC.dG [^3H]dGTP
[6] = molecular target: cellular DNA polymerase β (Homo sapiens, UniProt P06746); experiment: Cellular DNA polymerase β assay; type: biochemical
HIV-1 RT K103N = details: Poly rC.dG [^3H]dGTP
HCMV DNA polymerase [7] = molecular target: T3, HCMV DNA polymerase; experiment: HCMV DNA polymerase enzyme assay; type: biochemical; details: IC50 HCMV DNA pol, calf thymus DNA
HIV-1 RT L100I = details: Poly rC.dG [^3H]dGTP

T3 sequence (P08546 whole entry): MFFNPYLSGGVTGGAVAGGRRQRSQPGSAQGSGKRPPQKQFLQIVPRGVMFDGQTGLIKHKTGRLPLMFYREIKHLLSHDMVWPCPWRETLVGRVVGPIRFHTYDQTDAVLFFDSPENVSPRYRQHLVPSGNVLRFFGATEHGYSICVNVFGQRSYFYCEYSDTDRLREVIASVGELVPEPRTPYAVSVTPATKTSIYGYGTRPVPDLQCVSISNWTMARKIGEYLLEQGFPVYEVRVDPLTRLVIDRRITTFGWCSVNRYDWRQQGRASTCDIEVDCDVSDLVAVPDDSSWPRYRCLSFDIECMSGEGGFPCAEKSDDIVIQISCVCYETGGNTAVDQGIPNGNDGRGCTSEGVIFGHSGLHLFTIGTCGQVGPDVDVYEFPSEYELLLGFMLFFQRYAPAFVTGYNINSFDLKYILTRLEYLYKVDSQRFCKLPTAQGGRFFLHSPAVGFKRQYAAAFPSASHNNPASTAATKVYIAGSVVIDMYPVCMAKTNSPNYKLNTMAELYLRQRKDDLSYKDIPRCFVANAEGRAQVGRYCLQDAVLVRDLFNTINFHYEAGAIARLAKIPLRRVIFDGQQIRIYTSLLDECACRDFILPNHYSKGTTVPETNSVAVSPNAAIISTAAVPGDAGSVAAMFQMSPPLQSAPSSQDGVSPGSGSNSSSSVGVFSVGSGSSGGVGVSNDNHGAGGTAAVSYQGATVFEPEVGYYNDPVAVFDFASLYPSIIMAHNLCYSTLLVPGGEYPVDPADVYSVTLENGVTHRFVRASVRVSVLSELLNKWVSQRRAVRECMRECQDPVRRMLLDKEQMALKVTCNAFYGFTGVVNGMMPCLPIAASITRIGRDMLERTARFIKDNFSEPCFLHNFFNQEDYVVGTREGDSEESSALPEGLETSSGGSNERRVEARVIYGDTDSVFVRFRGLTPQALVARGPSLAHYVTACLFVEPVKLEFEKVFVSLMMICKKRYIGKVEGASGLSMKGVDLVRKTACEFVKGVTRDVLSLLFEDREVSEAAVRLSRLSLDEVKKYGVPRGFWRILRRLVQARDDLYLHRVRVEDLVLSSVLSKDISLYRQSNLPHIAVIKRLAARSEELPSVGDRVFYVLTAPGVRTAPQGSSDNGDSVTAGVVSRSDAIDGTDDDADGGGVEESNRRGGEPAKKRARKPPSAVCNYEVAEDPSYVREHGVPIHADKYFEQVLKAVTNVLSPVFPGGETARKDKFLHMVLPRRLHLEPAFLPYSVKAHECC
HSV-1 DNA polymerase, sequence (P04293 whole entry): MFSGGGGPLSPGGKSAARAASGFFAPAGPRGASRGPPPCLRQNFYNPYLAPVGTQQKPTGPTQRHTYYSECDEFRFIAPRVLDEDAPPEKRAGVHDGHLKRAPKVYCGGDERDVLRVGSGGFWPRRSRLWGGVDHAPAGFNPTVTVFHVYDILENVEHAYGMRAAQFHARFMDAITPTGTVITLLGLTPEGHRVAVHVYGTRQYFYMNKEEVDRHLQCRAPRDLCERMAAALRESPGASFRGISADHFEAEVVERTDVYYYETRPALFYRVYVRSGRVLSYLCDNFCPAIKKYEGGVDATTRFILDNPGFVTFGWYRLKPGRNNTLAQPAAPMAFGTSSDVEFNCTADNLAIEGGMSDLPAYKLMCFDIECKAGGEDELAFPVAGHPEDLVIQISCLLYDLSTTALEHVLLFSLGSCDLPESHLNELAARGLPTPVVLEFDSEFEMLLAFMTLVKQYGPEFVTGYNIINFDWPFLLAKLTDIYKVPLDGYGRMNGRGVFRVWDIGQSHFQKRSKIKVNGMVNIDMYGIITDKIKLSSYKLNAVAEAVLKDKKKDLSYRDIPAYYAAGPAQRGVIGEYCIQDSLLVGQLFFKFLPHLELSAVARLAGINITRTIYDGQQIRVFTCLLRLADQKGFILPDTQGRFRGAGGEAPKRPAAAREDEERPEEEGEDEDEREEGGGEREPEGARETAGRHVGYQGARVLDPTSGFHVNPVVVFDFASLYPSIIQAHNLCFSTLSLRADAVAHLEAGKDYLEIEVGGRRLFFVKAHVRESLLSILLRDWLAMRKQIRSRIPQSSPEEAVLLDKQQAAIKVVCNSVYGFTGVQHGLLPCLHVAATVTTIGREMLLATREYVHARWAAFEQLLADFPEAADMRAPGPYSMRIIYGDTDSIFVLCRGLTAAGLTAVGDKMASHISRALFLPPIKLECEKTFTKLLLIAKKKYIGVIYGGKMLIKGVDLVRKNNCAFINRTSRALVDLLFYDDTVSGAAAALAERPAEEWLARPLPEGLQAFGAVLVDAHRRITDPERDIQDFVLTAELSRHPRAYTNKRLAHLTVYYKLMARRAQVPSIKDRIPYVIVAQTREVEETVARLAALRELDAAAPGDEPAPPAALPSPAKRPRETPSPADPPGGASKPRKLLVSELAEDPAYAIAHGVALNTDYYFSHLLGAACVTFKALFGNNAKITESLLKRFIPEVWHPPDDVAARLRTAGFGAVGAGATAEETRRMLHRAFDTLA

SMILES: Nc1nc2c(ncn2[C@@H]2CC[C@H](OC(C(=O)O)P(=O)(O)O)C2)c(=O)[nH]1 (mixture of isomers) [(L,D)-(±)G-α-CNP, cis-9-{4-[Carboxy(phosphono)methoxy]cyclopentan-1-yl}guanine]
- Fold-resistance compared to wild-type (HIV-1 RT M184V): 8.7 fold
- Fold-resistance compared to wild-type (HIV-1 RT K70E): 0.7 fold
- Fold-resistance compared to wild-type (HIV-1 RT V106A): 1.6 fold
- Fold-resistance compared to wild-type (HIV-1 RT Y115F): 2.3 fold
- Fold-resistance compared to wild-type (HIV-1 RT M184V + Y115F): 39 fold
- Fold-resistance compared to wild-type (HIV-1 RT M184I): 19 fold
- Fold-resistance compared to wild-type (HIV-1 RT M184V + E138K): 6.1 fold
- IC50 (HSV-1 DNA polymerase; [^3H]dGTP): 8 ± 6 µM
- IC50 (HSV-1 DNA polymerase; [^3H]dTTP): 32 ± 11 µM
- EC50 (HIV-1 RT [1]): 44 ± 2 nM
- IC50 (HIV-1 RT [2]): 1800 ± 1100 nM
- IC50 (HIV-1 RT [3]; poly rA.dT, [^3H]dTTP): 536 µM
- IC50 (HIV-1 RT [3]; poly rC.dG, [^3H]dGTP): 0.62 ± 0.19 µM
- IC50 [4]: 477 ± 83 µM
- Fold-resistance compared to wild-type (HIV-1 RT K70R): 2.6 fold
- Ki (HCMV DNA polymerase [5]; competitive model): 2.12 µM
- Ki (HCMV DNA polymerase [5]; mixed model enzyme inhibition): 9.2 µM
- Ki (HCMV DNA polymerase [5]; non-competitive model): 8.59 µM
- Most likely mode of inhibition (HCMV DNA polymerase [5]): Non-competitive
- α (alpha-value), mixed model enzyme inhibition (HCMV DNA polymerase [5]; listed as (D,L)-(−,+)-G-α-CNP): 0.904
- Fold-resistance compared to wild-type (HIV-1 RT F61A): 79 fold
- Fold-resistance compared to wild-type (HIV-1 RT Q151M): 3.1 fold
- Fold-resistance compared to wild-type (HIV-1 RT Y181C): 5.2 fold
- Fold-resistance compared to wild-type (HIV-1 RT V75I): 8.7 fold
- Fold-resistance compared to wild-type (HIV-1 RT K70Q): 0.7 fold
- IC50 [6]: 531 ± 5 µM
- Fold-resistance compared to wild-type (HIV-1 RT K103N): 1.1 fold
- IC50 (HCMV DNA polymerase [7]; [^3H]dGTP): 9.4 ± 0.2 µM
- IC50 (HCMV DNA polymerase [7]; [^3H]dTTP): 16 ± 8 µM
- Fold-resistance compared to wild-type (HIV-1 RT L100I): 5.2 fold

From PMC5557014 (Biochemical pharmacology, 2017)
